# In US8552048B2, “Phosphoramidate alkylator prodrugs for the treatment of cancer” (Threshold Pharmaceuticals, Inc., priority 2006, dated 2013):
# Legend:
# [1] = test system: PC-3 human prostate tumor; test: GFP PC3 prostate orthotopic model; assay type: in vivo, mice
# [2] = test system: PC-3 human prostate cells; test: PC-3 luciferase intracardiac metastasis model (bioluminescence); assay type: in vivo, nude mice
# Protocol: Male nude mice were injected into their left ventricle with PC-3 human prostate cells (3×10^6) transfected with the gene for luciferase. The success of the intracardiac transfections was verified by a bioluminescence scan after the injection. On day 14, the mice with established bone tumor burden were randomized into four treatment groups (N=10): Taxotere® alone (20 mg/kg once a week for three weeks, i.v.), TH302 alone (50 mg/kg daily, 5 days a week for 3 weeks), combination treatment with both agents, and vehicle. Bioluminescence imaging was performed under anesthesia using an IVIS 50 optical imaging system.
# [3] = test system: HT29 Human colorectal cancer cells; test: HT29 xenograft, TH302 in combination with irinotecan; assay type: in vivo, mice; conditions: CPT-11 monotherapy 50 mg/kg i.p. Q7D×3, vs control group
# Protocol: TH302 and irinotecan (CPT-11) were formulated as follows: TH302 (7.5 mg/mL) in saline and CPT-11 (5 mg/mL) in 2% Tween80-saline. The formulations were filtered through a 0.2 μm filter then delivered to animals within one hour after it was made. HT29 Human colorectal cancer cells were prepared in 50% matrigel and 50% RPMI 1640 medium and implanted (3×10^6 cells) in the subcutaneous space of the right flank of 90 mice (0.2 mL/mouse). Tumor volumes reached about 160 mm^3 on day 12 day post implantation. Seventy two animals with similar tumor size were chosen for treatment after randomization. The remaining mice were used as no treatment control.
# The mice were administered TH302 intravenously at 75 mg/kg, once per week for 2 weeks (Q7D×2, i.v.) alone, and in combination with CPT-11, administered at, 50 mg/kg, (Q7D×3, intraperitoneally (i.p.)). […] After dosing started, tumor volumes were measured twice per week. […] For the mice administered CPT-11 alone, i.e., those on CPT-11 monotherapy, 41% tumor growth inhibition was observed compared to the control group of mice.
# [4] = test system: IGROV1 human ovarian cancer cells; test: IGROV1 ovarian cancer xenograft; assay type: in vivo; conditions: CDDP 4 mg/kg and 6 mg/kg i.p. Q7D×2 (both doses)
# Protocol: Forty nude mice were subcutaneously implanted with IGROV1 human ovarian cancer cells (5×10^6 cells/mouse). The tumor volumes were measured twice weekly starting on day 7. On day 8, tumor volumes reached about 97.7±3.9 mm^3. The mice were randomized in 3 treatment groups that were administered the following: CDDP (4 mg/kg, ip, Q7D×2), CDDP (6 mg/kg, i.p. Q7D×2), and TH302 (75 mg/kg, i.v., Q7D×2). A control group of mice were administered saline. […] Forty five days after the first administration of TH302, tumor growth inhibition was 66%. The tumor growth delay (to 300 mm^3) was 19 days.
# [5] = Pharmacokinetics after repeated administration (Q7D×3) to dogs; assay type: in vivo
# Excerpt: These changes were reversible.
# [6] = Pharmacokinetics after repeated administration (Q7D×3) to rats; assay type: in vivo
# Protocol: Each rat received a 30 minute infusion once a week for three weeks (Q7D×3).
# Br-IPM being capable of reacting with water and a number of other nucleophiles, for HPLC analysis of Br-IPM, the plasma obtained was frozen and treated with NaF and potassium oxalate.
# [7] = bromo-IPM in dogs after TH302 8 mg/kg Q7D×3, Day 15
# [8] = bromo-IPM in dogs after TH302 16 mg/kg Q7D×3, Day 15
# [9] = bromo-IPM in rats after TH302 12.5 mg/kg Q7D×3, Day 15
# [10] = bromo-IPM in rats after TH302 25 mg/kg Q7D×3, Day 15
# [11] = bromo-IPM in rats after TH302 50 mg/kg Q7D×3, Day 15
structure (smiles),measurement,setting,value
"CC(=O)O[C@@]12CO[C@@H]1C[C@H](O)[C@@]1(C)C(=O)[C@H](O)C3=C(C)[C@@H](OC(=O)[C@H](O)[C@@H](NC(=O)OC(C)(C)C)c4ccccc4)C[C@@](O)([C@@H](OC(=O)c4ccccc4)[C@H]21)C3(C)C [Taxotere®, Docetaxel]",tumor volume regressed to,"[1]; Taxotere 12 mg/kg once a week for two weeks, alone or with TH302",21±15 mm^3
same,tumor volume on day 62,"[1]; Taxotere alone or with TH302, P<0.01 combination vs Taxotere alone",766 mm^3
same,tumor growth delay (TGD),"[1]; single agent, Taxotere 12 mg/kg once a week for two weeks",31 days
same,"toxicities (weight loss, deaths)","[2]; TH302 50 mg/kg daily 5 days a week for 3 weeks, Taxotere 20 mg/kg once a week for three weeks i.v., or both",weight loss and a toxicity-related death
same,bone metastases and soft tissue tumor burden compared to vehicle,"[2]; Taxotere alone 20 mg/kg once a week for three weeks, i.v.",significant reduction in bone metastases and soft tissue tumor burden
"CCc1c2c(nc3ccc(OC(=O)N4CCC(N5CCCCC5)CC4)cc13)-c1cc3c(c(=O)n1C2)COC(=O)[C@]3(O)CC [CPT-11, irinotecan]",tumor growth inhibition,[3],41%
"N.N.[Cl][Pt][Cl] [CDDP, reference compound]",reduction in tumor volume,[4],did not show significant reduction in tumor volume
"O=P(O)(NCCBr)NCCBr [Br-IPM, HO—P(═O)(NHCH2CH2Br)2]",AUClast,[5]; [7],21.8 ng·h/mL
same,Cmax,[5]; [7],62.7 ng/mL
same,AUClast,[5]; [8],60.7 ng·h/mL
same,Cmax,[5]; [8],146 ng/mL
same,half-life,[5]; [8],18.3 min
same,AUC of the active toxin Br-IPM,"[5]; dogs, after TH302 8 mg/kg",about 21.8 h×ng/mL
same,AUC,[6]; [9],107 ng·h/mL
same,Cmax,[6]; [9],286 ng/mL
same,half-life,[6]; [9],8.88 min
same,AUC,[6]; [10],97 ng·h/mL
same,Cmax,[6]; [10],375 ng/mL
same,half-life,[6]; [10],8.28 min
same,AUC,[6]; [11],143 ng·h/mL
same,Cmax,[6]; [11],385 ng/mL
same,half-life,[6]; [11],23 min
same,AUC of the active toxin Br-IPM,"[6]; rats, after TH302 25 mg/kg",about 97 h×ng/mL
